Tests used:
Format in all cases: in vivo
[1] = Rat model of severe ischemic intestine with enteral oxygen carrier; conditions: 30 min ischemia, 17 ml solution for a 230 g rat, saturated for 10 min in oxygen
Protocol: More specifically, the feasibility was illustrated in a model with 30 min ischemia with perfluorodecalin solution 17 ml for 230 g rat) previously saturated for 10 min in oxygen. Thus, it should be noted that gastric, duodenal, jejunal, and ileal irrigation (or otherwise exposure) may be used as a stand-alone or supplemental treatment in human and other mammals. Most typically, the volume of the oxygen carrier will be adjusted such as to allow intimate contact with the oxygen carrier throughout the stomach, duodenum, jejunum, and/or ileum.

digestive enzymes = experiment: Shock treatment in rats with an enteral protease inhibitor to block digestive enzymes
Protocol: With respect to suitable quantities of one or more protease inhibitors, the inventors observed in various animal models that shock treatment using protease inhibitors to block digestive enzymes requires for at least some protease inhibitors a minimum effective dosage that is substantially above the dosage contemplated in the '283 patent. For example, using tranexamic acid in rats, the minimum effective dose was 100 mg/kg (127 mM in the enteral solution with 17 ml to a 350 gm rat). Here, tranexamic acid was given to rats in 18 cc of fluid. The equivalent concentration in 2 liters (deemed suitable as human dose) is 3.2 grams. The maximum dose tested in rats was 1125 mg/kg, which is equivalent to 36 grams for a human dose in 2 liters of fluid to be administered into the lumen of the stomach or intestine.

[2] = Case study: human patient with Fournier's gangrene, septic shock and multiple organ failure, treated with gabexate mesilate
Protocol: For example, as reported in a case study from the Cheng-Hsin General Hospital (that was approved by Human Ethics Committee and written consent by the patient), a heart transplant patient was regularly followed-up in the clinic with cyclosporine, mycophenolate, and prednisolone therapy for four years. The cyclosporine level was kept around 150, […] without evidence of rejection or infection during this period of follow-up. […] The wound was self-managed by the patient and deteriorated after one week. They were hospitalized and immediately admitted to the intensive care unit. At presentation, blood pressure was 80/40 mmHg in spite of aggressive fluid management with 2 liters of crystalloid and colloid fluid over 5 hours and vasopressor therapy with dopamine […]. […] They were intubated and received broad-spectrum antibiotics, including teichomycin, meropenem, and caspofungin. […] The diagnosis was Fournier's gangrene complicated with septic shock and multiple organ failure. Due to persistent septic shock and worsening septic markers, the patient received in addition a diverting colectomy and intravenous total parental nutrition. Furthermore, the patient also received a second wide debridement. The wound culture was positive with multiple drug resistance Pseudomonas aeruginosa and Bacteroides thetaiotaomicron.
Intravenous gabexate mesilate was given for severe septic shock and elevated amylase and lipase values (as markers for presence of pancreatic enzymes) at a dose of 3000 mg/day. At the same time, the patient stopped all enteral feeding and total parental nutrition was given with positive fluid balance of more than 1 liter per day.
Treatment was then switched to enteral gabexate mesilate infusion by continuous feeding into the stomach via nasogastric tube at a dose of 3000 mg/day in 2000 ml of normal saline. […] On the third day, the dose of gabexate mesilate was reduced to 300 mg/day in a fluid volume of 2000 ml and kept at this level for 10 days before discharge of the patient from the intensive care unit. […] Three days after enteral gabexate mesilate treatment they were extubated. On day 13, the immunosuppressant medication was restored with reduced dosage compared to the time before hospitalization and they were discharged from the ward after one month of admission. Five months after discharge at the time of this report writing the patient was alive.

[3] = enteral via nasogastric tube, 3000 mg/day, within two days

FC1(F)C(F)(F)C(F)(F)C2(F)C(F)(F)C(F)(F)C(F)(F)C(F)(F)C2(F)C1(F)F (stereo not shown) [perfluorodecalin, Perfluorodecalin]
intestinal damage / entry of digestive enzymes into the wall of the intestine [1]: minimize intestinal damage

NC[C@H]1CC[C@H](C(=O)O)CC1 [tranexamic acid]
minimum effective dose, as concentration in the enteral solution (digestive enzymes; 17 ml to a 350 gm rat): 127 mM
equivalent of the minimum effective rat dose in 2 liters (human dose) (digestive enzymes; extrapolated from rat to a human dose in 2 liters): 3.2 grams
minimum effective dose (digestive enzymes; rats, enteral, given in 17-18 ml of fluid to a 350 gm rat): 100 mg/kg

[Ethyl p-(6-guanidinohexanoyloxy) benzoate] methanesulfonate [gabexate mesilate]
effectiveness of a single dose/day given via NG tube in human ([2]; 2 to 4 grams in 1 to 2 liter solution with GOLYTELY (PEG) or saline, over multiple days (up to 14)): very effective
blood pressure ([2]; continuous feeding into the stomach via nasogastric tube, 3000 mg/day in 2000 ml normal saline, within two days, minimal dose of dopamine): stabilized
amylase, lipase and white blood cell (WBC) count ([2]; enteral via nasogastric tube, 3000 mg/day, then 300 mg/day from the third day for 10 days, FIG. 1A): reduced to control values
glucose level [2, 3]: could be controlled by reduced dose of subcutaneous insulin
patient's level of conscience [2, 3]: increased
x-ray of the abdomen (ileus) ([2]; enteral via nasogastric tube, day 16 vs day 1, FIG. 1C): improved ileus
survival ([2]; five months after discharge): alive
plasma amylase and lipase values ([2]; intravenous, 3000 mg/day, over the next 12 hours, enteral feeding stopped, total parenteral nutrition): did not reduce
extubation ([2]; three days after enteral treatment): extubated

From patent US11439611B2, “Administration of serine protease inhibitors to the stomach” (LEADING BIOSCIENCES, INC., priority 2010, dated 2022)
